Data set [1] in a line: Acute toxicity, single oral administration to mice. As to conditions: mouse, in vivo, p.o. The text has this: (§1) The Table which follows contains the results obtained with representative compounds of the invention. In the Table there are given VD50 in mg/kg p.o. and the LD50 in mg/kg in the case of single oral administration to mice.
For the next data set, the system named is Schistosoma mansoni. Briefly: Schistosomicidal activity in infected mice (reduction in number of worms, single peroral treatment). Format: in vivo, Schistosoma mansoni (Liberia strain) in albino mice. As to conditions: po, read-out: VD50 (vermicidal dosage which brings about a 50 percent reduction in the number of worms). Here is the method:
Albino mice weighing 15-18 g are infected subcutaneously with 60±5 cercaria of a Liberia strain of Schistosoma mansoni. Forty-six (46) days after infection, the animals are treated once perorally with the test substance. There are 5-10 animals used per substance and dosage. There are 10 untreated animals used as controls. The autopsies are carried out after 60 days. Whereupon worm pairs and individual worms in the mesenteric veins, portal vein and liver are dissected out and counted.
For the evaluation, the percentage reduction in parasites in treated animals in comparison to untreated control animals is calculated. The VD50 is determined according to the Probit method. The VD50 is that vermicidal dosage which brings about a 50 percent reduction in the number of worms.
as §1

Bounds are passed on as bounds.

As usually defined, the LD50 is the dose expected to kill half of the subjects tested. The low end stands for greater toxicity, the high end for lower toxicity. Turning to `c1ccc2c(=NN=C3NCCS3)c3ccccc3[nH]c2c1` [9-acridanone (2-thiazolidinylidene)hydrazone], the LD50 in data set [1] was in the range of 1250 to 2500 mg/kg. The ED50 in the data set with Schistosoma mansoni turned out to be 26 mg/kg.

The compound `Cl.Cn1c2ccccc2c(=NNc2nccs2)c2ccccc21` [10-methyl-9-acridanone (2-thiazolyl)hydrazone hydrochloride] yielded a 50% lethal dose (LD50) in data set [1] of over 5000 mg/kg. Further, the ED50 with Schistosoma mansoni came out at 9 mg/kg.

These data come from US4544659A, “Schistosomicidal acridanone hydrazones” (Hoffman-La Roche Inc., priority 1982, dated 1985).
